Measured values as given in patent publication US20170022171A1, “2,5-DISUBSTITUTED CYCLOPENTANECARBOXYLIC ACIDS AND THEIR USE” (Bayer Pharma Aktiengesellschaft, priority 2014, published 2017).

Columns and labels:
Assay type in all cases: biochemical
[1] = molecular target: T1, MMP-3 (Homo sapiens, UniProt P08254); test: In vitro MMP-3 inhibition test
T1 construct: purchased R&D Systems 513-MP
Text: (§1) The MMP-mediated amidolytic cleavage of a suitable peptide substrate leads to an increase in fluorescent light here too. The signal intensity of the fluorescent light is directly proportional to the enzyme activity. The active concentration of a test compound at which half the enzyme is inhibited (50% signal intensity of the fluorescent light) is reported as the IC50 value.
Recombinant MMP-3 (from R&D Systems, 513-MP) is chemically activated in accordance with the manufacturer's instructions using APMA. 1 μl of the test compound to be analysed (as a solution in DMSO, suitable concentrations, for example, 1 nM to 30 μM) is pipetted into 24 μl of activated enzyme (final concentration, for example, 2 nM) in reaction buffer (50 mM Tris/HCl pH 7.5, 10 mM CaCl2, 150 mM NaCl, 0.05% Brij®-35) in a white 384-hole microtiter plate (MTP). The enzymatic reaction is started by adding the intramolecularly quenched Mca-Arg-Pro-Lys-Pro-Val-Glu-Nval-Trp-Arg-Lys(Dnp)-NH2 substrate (final concentration, for example, 10 μM; R&D Systems, ES-002), so as to result in a total test volume of 50 The course of the MMP-3 reaction is measured by measuring the fluorescence intensity (excitation 320 nm, emission 410 nm) over a suitable period of time (for example over 120 min at a temperature of 32° C.).

[2] = molecular target: T2, MMP-8 (Homo sapiens, UniProt P22894); test: In vitro MMP-8 inhibition test
T2 construct: purchased R&D Systems 908-MP
Text: as §1
(§2) Recombinant MMP-8 (from R&D Systems, 908-MP) is chemically activated in accordance with the manufacturer's instructions using APMA. 1 μl of the test compound to be analysed (as a solution in DMSO, suitable concentrations, for example, 1 nM to 30 μM) is pipetted into 24 μl of activated enzyme (final concentration, for example, 0.5 nM) in reaction buffer (50 mM Tris/HCl pH 7.5, 10 mM CaCl2, 150 mM NaCl, 0.05% Brij®-35) in a white 384-hole microtiter plate (MTP). The enzymatic reaction is started by adding the intramolecularly quenched Mca-Pro-Leu-Gly-Leu-Dpa(Dnp)-Ala-Arg-NH2 substrate (final concentration, for example, 10 μM; R&D Systems, ES-001), so as to result in a total test volume of 50 μl. The course of the MMP-8 reaction is measured by measuring the fluorescence intensity (excitation 320 nm, emission 410 nm) over a suitable period of time (for example over 120 min at a temperature of 32° C.).

[3] = molecular target: T3, MMP-13 (Homo sapiens, UniProt P45452); test: In vitro MMP-13 inhibition test
T3 construct: purchased R&D Systems 511-MP
Text: as §1
as §2, with “MMP-13” for “MMP-8”, “511-MP)” for “908-MP)”, “0.1” for “0.5”, “50” for “50 μl.”

[4] = molecular target: T4, MMP-14 (Homo sapiens, UniProt P50281); test: In vitro MMP-14 inhibition test
T4 construct: purchased R&D Systems 918-MP
Text: as §1
(§3) Recombinant MMP-14 (from R&D Systems, 918-MP) is enzymatically activated in accordance with the manufacturer's instructions using recombinant furin (from R&D Systems, 1503-SE). 1 μl of the test compound to be analysed (as a solution in DMSO, suitable concentrations e.g. 1 nM to 30 μM) is pipetted into 24 μl of activated enzyme (final concentration e.g. 0.5 nM) in reaction buffer (50 mM Tris/HCl pH 7.5, 10 mM CaCl2, 150 mM NaCl, 0.05% Brij®-35) in a white 384-hole microtiter plate (MTP). The enzymatic reaction is started by adding the intramolecularly quenched Mca-Lys-Pro-Leu-Gly-Leu-Dpa(Dnp)-Ala-Arg-NH2 substrate (final concentration, for example, 5 μM; R&D Systems, ES-010), so as to result in a total test volume of 50 The course of the MMP-14 reaction is measured by measuring the fluorescence intensity (excitation 320 nm, emission 410 nm) over a suitable period of time (for example over 120 min at a temperature of 32° C.).

[5] = molecular target: T5, MMP-16 (Homo sapiens, UniProt P51512); test: In vitro MMP-16 inhibition test
T5 construct: purchased R&D Systems 1785-MP
Text: as §1
as §3, with “MMP-16” for “MMP-14”, “1785-MP)” for “918-MP)”, “1” for “0.5”

T1 sequence (P08254 100-477): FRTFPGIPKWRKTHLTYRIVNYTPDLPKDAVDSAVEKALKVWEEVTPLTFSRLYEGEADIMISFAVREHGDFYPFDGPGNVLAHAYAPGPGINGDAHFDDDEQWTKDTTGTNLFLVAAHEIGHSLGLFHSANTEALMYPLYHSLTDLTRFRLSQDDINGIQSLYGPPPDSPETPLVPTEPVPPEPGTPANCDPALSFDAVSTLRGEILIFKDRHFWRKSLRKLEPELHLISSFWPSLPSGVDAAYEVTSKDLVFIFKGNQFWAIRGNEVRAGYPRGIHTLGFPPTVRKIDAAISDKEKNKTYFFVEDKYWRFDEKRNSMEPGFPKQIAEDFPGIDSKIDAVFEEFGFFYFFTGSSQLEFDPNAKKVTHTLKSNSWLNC
T2 sequence (P22894 101-467): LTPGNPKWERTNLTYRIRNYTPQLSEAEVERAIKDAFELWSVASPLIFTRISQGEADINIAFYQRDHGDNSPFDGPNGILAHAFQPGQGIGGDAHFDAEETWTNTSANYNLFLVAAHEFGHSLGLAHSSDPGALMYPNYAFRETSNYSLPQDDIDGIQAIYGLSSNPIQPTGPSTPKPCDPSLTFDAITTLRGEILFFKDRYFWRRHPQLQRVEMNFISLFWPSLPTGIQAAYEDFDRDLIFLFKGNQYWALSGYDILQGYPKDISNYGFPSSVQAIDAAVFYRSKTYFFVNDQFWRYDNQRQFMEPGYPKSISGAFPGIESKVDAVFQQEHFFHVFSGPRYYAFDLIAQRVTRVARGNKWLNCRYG
T5 sequence (P51512 120-564 limits assumed): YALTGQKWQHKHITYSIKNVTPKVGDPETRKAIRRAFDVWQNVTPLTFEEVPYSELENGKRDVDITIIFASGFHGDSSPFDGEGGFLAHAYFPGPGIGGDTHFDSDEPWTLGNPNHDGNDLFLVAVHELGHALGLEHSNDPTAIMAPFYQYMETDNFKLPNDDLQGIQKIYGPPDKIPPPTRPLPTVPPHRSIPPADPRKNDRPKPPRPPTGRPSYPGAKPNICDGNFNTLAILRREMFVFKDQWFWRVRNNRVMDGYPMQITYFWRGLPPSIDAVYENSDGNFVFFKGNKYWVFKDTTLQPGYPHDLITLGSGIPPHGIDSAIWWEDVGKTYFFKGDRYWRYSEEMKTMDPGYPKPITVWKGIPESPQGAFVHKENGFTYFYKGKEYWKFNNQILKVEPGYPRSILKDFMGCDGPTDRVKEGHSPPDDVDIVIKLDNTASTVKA

O=C(O)[C@H]1[C@H](Cn2nnc3ccccc3c2=O)CC[C@@H]1C(=O)c1ccc(OCc2ccc(F)cc2)cc1 (racemic) [Example 1, (+/−)-(1RS,2RS,5SR)-2-{4-[(4-Fluorobenzyl)oxy]benzoyl}-5-[(4-oxo-1,2,3-benzotriazin-3(4H)-yl)methyl]cyclopentanecarboxylic acid]
IC50 [1]: 170 nM
IC50 [2]: 2.5 nM
IC50 [3]: 11 nM
IC50 [4]: 24 nM
IC50 [5]: 130 nM

O=C(O)[C@H]1[C@H](Cn2nnc3ccccc3c2=O)CC[C@@H]1C(=O)c1ccc(OCc2cccc(Cl)c2)cc1 (racemic) [Example 2, (+/−)-(1RS,2RS,5SR)-2-{4-[(3-Chlorobenzyl)oxy]benzoyl}-5-[(4-oxo-1,2,3-benzotriazin-3(4H)-yl)methyl]cyclopentanecarboxylic acid]
IC50 [1]: 2100 nM
IC50 [2]: 440 nM
IC50 [3]: 400 nM
IC50 [4]: 480 nM
IC50 [5]: 1000 nM

O=C(O)[C@H]1[C@H](Cn2nnc3ccccc3c2=O)CC[C@@H]1C(=O)c1ccc(OCc2ccc(Cl)c(Cl)c2)cc1 (racemic) [Example 3, (+/−)-(1RS,2RS,5SR)-2-{4-[(3,4-Dichlorobenzyl)oxy]benzoyl}-5-[(4-oxo-1,2,3-benzotriazin-3(4H)-yl)methyl]cyclopentanecarboxylic acid]
IC50 [1]: 1500 nM
IC50 [2]: 260 nM
IC50 [3]: 340 nM
IC50 [4]: 700 nM
IC50 [5]: 4000 nM

O=C(O)[C@H]1[C@H](Cn2nnc3ccccc3c2=O)CC[C@@H]1C(=O)c1ccc(OCC2CCCC2)cc1 (racemic) [Example 4, (+/−)-(1RS,2RS,5SR)-2-[4-(Cyclopentylmethoxy)benzoyl]-5-[(4-oxo-1,2,3-benzotriazin-3(4H)-yl)methyl]cyclopentanecarboxylic acid]
IC50 [1]: 1100 nM
IC50 [2]: 14 nM
IC50 [3]: 58 nM
IC50 [4]: 33 nM
IC50 [5]: 170 nM

O=C(O)[C@H]1[C@H](Cn2nnc3ccccc3c2=O)CC[C@@H]1C(=O)c1ccc(OCCC2CCCCC2)cc1 (racemic) [Example 5, (+/−)-(1RS,2RS,5SR)-2-[4-(2-Cyclohexylethoxy)benzoyl]-5-[(4-oxo-1,2,3-benzotriazin-3(4H)-yl)methyl]cyclopentanecarboxylic acid]
IC50 [1]: 1500 nM
IC50 [2]: 250 nM
IC50 [3]: 350 nM
IC50 [4]: 620 nM
IC50 [5]: 2500 nM

O=C(O)[C@H]1[C@H](Cn2nnc3ccc(C(F)(F)F)cc3c2=O)CC[C@@H]1C(=O)c1ccc(OCc2ccccc2)cc1 (racemic) [Example 11, (+/−)-(1RS,2RS,5SR)-2-[4-(Benzyloxy)benzoyl]-5-{[4-oxo-6-(trifluoromethyl)-1,2,3-benzotriazin-3(4H)-yl]methyl}cyclopentanecarboxylic acid]
IC50 [1]: 100 nM
IC50 [2]: 3.2 nM
IC50 [3]: 88 nM
IC50 [4]: 150 nM
IC50 [5]: 4500 nM

O=C(O)[C@H]1[C@H](Cn2nnc3ccc(C(F)(F)F)cc3c2=O)CC[C@@H]1C(=O)c1ccc(OCc2ccc(F)cc2)cc1 (racemic) [Example 12, (+/−)-(1RS,2RS,5SR)-2-{4-[(4-Fluorobenzyl)oxy]benzoyl}-5-{[4-oxo-6-(trifluoromethyl)-1,2,3-benzotriazin-3(4H)-yl]methyl}cyclopentanecarboxylic acid]
IC50 [1]: 28 nM
IC50 [2]: 0.67 nM
IC50 [3]: 39 nM
IC50 [4]: 78 nM
IC50 [5]: 86 nM

Cc1cccc(COc2ccc(C(=O)[C@H]3CC[C@@H](Cn4nnc5ccc(C(F)(F)F)cc5c4=O)[C@@H]3C(=O)O)cc2)c1 (racemic) [Example 15, (+/−)-(1RS,2RS,5SR)-2-{4-[(3-Methylbenzyl)oxy]benzoyl}-5-{[4-oxo-6-(trifluoromethyl)-1,2,3-benzotriazin-3(4H)-yl]methyl}cyclopentanecarboxylic acid]
IC50 [1]: 220 nM
IC50 [2]: 26 nM
IC50 [3]: 640 nM
IC50 [4]: 180 nM
IC50 [5]: 520 nM

O=C(O)[C@H]1[C@H](Cn2nnc3ccc(C(F)(F)F)cc3c2=O)CC[C@@H]1C(=O)c1ccc(OCc2cccc(C(F)(F)F)c2)cc1 (racemic) [Example 18, (+/−)-(1RS,2SR,5RS)-2-{[4-Oxo-6-(trifluoromethyl)-1,2,3-benzotriazin-3(4H)-yl]methyl}-5-(4-{[3-(trifluoromethyl)benzyl]oxy}benzoyl)cyclopentanecarboxylic acid]
IC50 [1]: 1000 nM
IC50 [2]: 61 nM
IC50 [3]: 1400 nM
IC50 [4]: 1000 nM
IC50 [5]: 4000 nM

O=C(O)[C@H]1[C@H](Cn2nnc3ccc(C(F)(F)F)cc3c2=O)CC[C@@H]1C(=O)c1ccc(OCCCc2ccccc2)cc1 (racemic) [Example 39, (+/−)-(1RS,2SR,5RS)-2-{[4-Oxo-6-(trifluoromethyl)-1,2,3-benzotriazin-3(4H)-yl]methyl}-5-[4-(3-phenylpropoxy)benzoyl]cyclopentanecarboxylic acid]
IC50 [1]: 420 nM
IC50 [2]: 290 nM
IC50 [3]: 1600 nM
IC50 [4]: 6400 nM
IC50 [5]: 14000 nM

O=C(O)[C@H]1[C@H](Cn2nnc3ccc(C(F)(F)F)cc3c2=O)CC[C@@H]1C(=O)c1ccc(OCC2CCCCC2)cc1 (racemic) [Example 40, (+/−)-(1RS,2RS,5SR)-2-[4-(Cyclohexylmethoxy)benzoyl]-5-{[4-oxo-6-(trifluoromethyl)-1,2,3-benzotriazin-3(4H)-yl]methyl}cyclopentanecarboxylic acid]
IC50 [1]: 180 nM
IC50 [2]: 6.3 nM
IC50 [3]: 380 nM
IC50 [4]: 460 nM
IC50 [5]: 920 nM

O=C(O)[C@H]1[C@H](Cn2nnc3ccc(C(F)(F)F)cc3c2=O)CC[C@@H]1C(=O)c1ccc(OCCCC2CCCCC2)cc1 (racemic) [Example 56, (+/−)-(1RS,2RS,5SR)-2-{4-(3-Cyclohexylpropoxy)benzoyl}-5-{[4-oxo-6-(trifluoromethyl)-1,2,3-benzotriazin-3(4H)-yl]methyl}cyclopentanecarboxylic acid]
IC50 [1]: 2000 nM
IC50 [2]: 580 nM
IC50 [3]: 2400 nM
IC50 [4]: > 40000 nM
IC50 [5]: > 40000 nM
